Columns and labels:
male Long-Evans rats = test: Acute feeding assay with a selective 5-HT2C receptor antagonist; assay type: in vivo, rat; conditions: antagonist 3 mg/Kg subcutaneous about 15 min. before oral test compound
Description: Animals: Obtain male Long-Evans rats (Harlan Sprague-Dawley, Indianapolis, Ind.) that are approximately one hundred-days old and have been maintained on a calorie rich diet since weaning (TD 95217, 40% calories from fat; Teklad, Madison, Wis.). House the rats individually with a 12 hr.:12 hr. light:dark cycle (lights on from about 22:00 hr. to about 10:00 hr.) and maintain rats on the same diet (TD 95217) with free access to water, for about 1-2 weeks to acclimate the rats to the environment. Dose rats orally with vehicle (10% acacia with 0.15% saccharin in water) once daily for at least 1 day (typically 1-2 days) to acclimate the rats to the procedures. Randomize the rats into groups so each group has similar mean body weights.
Acute Feeding Assay with a selective 5-HT2C receptor antagonist: The above calorimetric acute feeding assay is conducted with the following modifications. Open circuit calorimetry systems are not used and only the 24 hr. periodic food intake and body weight are measured. […]

male NIH Swiss mice = test: Marble burying assay (with rotorod); assay type: in vivo, mouse
Description: Marble burying in mice has been used to model anxiety disorders including obsessive-compulsive disorders (OCD) due to ethological study of the behavior (e.g. Gyertyan I. “Analysis of the marble burying response: Marbles serve to measure digging rather than evoke burying”, Behavioural Pharmacology 6: 24-31, (1995)) and due to the pharmacological effects of clinical standards (c.f., Njung′E K. Handley S L. “Evaluation of marble-burying behavior as a model of anxiety”, Pharmacology, Biochemistry & Behavior. 38: 63-67, (1991)); Borsini F., Podhorna J., and Marazziti, D. “Do animal models of anxiety predict anxiolytic effects of antidepressants?”, Psychopharmacology 163: 121-141, (2002)). Thus, drugs used in the treatment of generalized anxiety in humans (e.g. benzodiazepines) as well as compounds used to treat OCD (e.g. SSRIs like fluoxetine) decrease burying.
House experimentally-naïve male, NIH Swiss mice (Harlan Sprague-Dawley, Indianapolis, Ind.) weighing between 28-35 g in groups of 12 for at least three days prior to testing in a vivarium with 12 hr. light and dark cycles. Conduct experiments during the light cycle in a dimly lit experimental testing room. Dose mice with vehicle or compound and, after a specified pretreatment interval (generally 30 min.), place each mouse individually on a rotorod (Ugo Basile 7650) operating at a speed of 6 revolutions/min. and observe for falling. After 2 min. on the rotorod, place the mice individually in a 17×28×12 cm high plastic tub with 5 mm sawdust shavings on the floor that are covered with 20 blue marbles (1.5 cm diameter) placed in the center. After 30 min., count the number of marbles buried (⅔ covered with sawdust). Assess the compound's effect on marble burying with Dunnett's test and the effect on rotorod performance by Fisher's exact test.
Clinically effective standard compounds suppress marble burying at doses that are devoid of motor-impairing effects as measured on the rotorod. […]

In the case of `FC(F)(F)CNc1c(Cl)ccc2c1CCNCC2.O=C(O)CCC(=O)O` [Example 2, 7-Chloro-6-(2,2,2-trifluoroethylamino)-2,3,4,5-tetrahydro-1H-benzo[d]azepine Succinic Acid Salt], the “effect on 24 hr. food intake after pre-administration of the 5-HT2C receptor antagonist” value (male Long-Evans rats) is reported as “blocked”, the “reduction of burying behavior with co-administration of the 5-HT2C antagonist” value (male NIH Swiss mice) is reported as “blocked” and the “marble burying behavior (relative to rotorod performance)” value (male NIH Swiss mice; 30 min. burying session) is reported as “reduce burying behavior”.

Source: patent publication US20060264418A1, “6-(2,2,2-Trifluoroethylamino-7-chloro-2,3,4,5-tetrahydro-1h-benzo[d] azephine as a 5-ht2c receptor agonist” (priority 2003, published 2006)
